The source made the active and inactive calls. No rule for the calls is given here.

For the assay, the target named is Serine/threonine-protein kinase mTOR (Homo sapiens) (UniProt P42345). Briefly: binders of mTOR FRB domain, biophysical, NMR (AID 1648). Conditions: NMR binding to FRB domain, chemical shift.
Serine/threonine-protein kinase mTOR (Homo sapiens), sequence (P42345 2015-2114): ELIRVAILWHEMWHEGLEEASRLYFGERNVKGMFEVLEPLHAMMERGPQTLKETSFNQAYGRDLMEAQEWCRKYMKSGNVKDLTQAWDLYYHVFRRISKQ
By Kd is commonly meant the concentration at which binding is half-saturated. For `OCc1ccc2c(c1)OCO2`, the Kd is > 4 mM (inactive).
On to `CSc1ccc(C(=S)N2CCN(C)CC2)cc1`, for which the Kd is > 4 mM (inactive).
For `CC(=O)Oc1ccc(-c2cc(=O)c3c(OC(C)=O)cc(OC(C)=O)cc3o2)cc1` the value was > 4 mM (inactive).
For `Nc1ccc(-c2cn3c(n2)SCC3)cc1` the value was > 4 mM (inactive); for `O=C(c1ccco1)N1CCNCC1`, > 4 mM (inactive); for `COc1ccc2nc(N)sc2c1`, > 4 mM (inactive).
Then `O=C(NN1C(=O)C2C3C=CC(C3)C2C1=O)C1CC=CCC1` (stereo not given), with > 4 mM (inactive).
Take `CC(=O)Nc1cccc(-c2nnc3n2CC(C)S3)c1` (stereo not given): the Kd was > 4 mM (inactive).
Take `OCc1cccs1`: the Kd is > 4 mM (inactive).
For `OC1(c2ccc(Cl)cc2)CCNCC1` the value was > 4 mM (inactive); for `S=c1[nH]nc(-c2cccnc2)n1C1CCCCC1`, > 4 mM (inactive).
For `CCCCCCCCCCCC1=C(O)C(=O)C=C(O)C1=O` the value was > 4 mM (inactive); for `COc1c(C(=O)N2CCCC2)ccc2ccccc12`, > 4 mM (inactive); for `COc1ccc(-c2coc3cc(O)ccc3c2=O)c(OC)c1`, > 4 mM (inactive).
With `O=C(O)CCC(=O)NCc1cccnc1`, the Kd was > 4 mM (inactive).
Then `NC(C(=O)O)C(O)c1ccccc1` (stereo not given), with > 4 mM (inactive).
In the case of `Cc1ccc(C)c(C(=O)NCc2ccncc2)c1`, the Kd was > 4 mM (inactive).
For `NC(=O)CSc1nnc2ccc3ccccc3n12` the value was > 4 mM (inactive).
Then `COc1cccc(-c2cc(=O)c3cc(OC)ccc3o2)c1`, with > 4 mM (inactive); and `CC(=O)Nc1ccc(S(=O)(=O)NCC2CCCO2)cc1` (stereo not given), with > 4 mM (inactive).
`c1ccc2[nH]c(-c3cscn3)nc2c1`: the Kd is > 4 mM (inactive).
For `CN(C)N1C(=O)C2CCCCC2C1=O` (stereo not given) the value was > 4 mM (inactive).
On to `CC(C)CCCC(C)C1CCC2C3C[C@@H](O)[C@@]4(O)C[C@@H](O)CC[C@]4(C)C3CC[C@]12C` (stereo not given in full), for which the Kd is > 4 mM (inactive).
Then `Cc1occc1C(=O)Nc1ccc(C(N)=O)cc1`, with > 4 mM (inactive); and `CC(=O)N/N=C(\C)c1cccc(N)c1`, with > 4 mM (inactive).
For `CS(=O)(=O)N1CCN(C(=O)c2ccccc2F)CC1` the value was > 4 mM (inactive); for `CC(C)(C)Cc1nc(-c2ccccn2)no1`, > 4 mM (inactive); for `CC(C)=CC(=O)Nc1ccc2c(c1)OCO2`, > 4 mM (inactive).
For `Nc1nc2[nH]c(=O)c(=O)[nH]c2c(=O)[nH]1` the value was > 4 mM (inactive).
`O=C1C2CCCCC2C(=O)N1c1ccc(O)cc1` (stereo not given): the Kd was > 4 mM (inactive).
Then `OCc1ccc2c(c1)CCO2`, with > 4 mM (inactive); and `COc1cccc(NC(=O)c2ocnc2C)c1`, with > 4 mM (inactive); and `Cc1nc(-c2ccccc2)sc1C(N)=O`, with > 4 mM (inactive).
Then `O=C(/C=C1\SC(=O)NC1=O)NCc1ccccc1`, with > 4 mM (inactive); and `COc1ccc(C(=O)/C=C/c2ccccc2)cc1`, with > 4 mM (inactive); and `CCOc1ccc(C(=O)c2ccc(OC)c(O)c2O)cc1`, with > 4 mM (inactive).
`COc1ccc(C2CC(=O)NN2)cc1OC1CCCC1` (stereo not given): the Kd is > 4 mM (inactive).
In the case of `OC1CCN(Cc2ccc[nH]2)CC1`, the Kd was > 4 mM (inactive).
For the molecule `COc1cc(C/C=C/c2ccccc2)c(OC)cc1O`, the Kd was > 4 mM (inactive).
For `Nc1cccc(S(=O)(=O)N2CCCC2)c1` the value was > 4 mM (inactive).
For `O=C(Nc1ccccn1)c1cc(-n2cnnc2)ccc1Cl` the value was > 4 mM (inactive); for `Cc1cc(F)c(F)c(C(=O)NC2CC2)c1Cl`, > 4 mM (inactive); for `c1cncc(Cn2cccc2)c1`, > 4 mM (inactive).
`NC(=O)C1(S(=O)(=O)c2ccccc2)CC1`: the Kd is > 4 mM (inactive).
Then `NCc1ccc(-c2cccs2)cc1`, with > 4 mM (inactive); and `CC[C@]12CCCN3CCc4c(n(c5ccccc45)[C@](O)(C(=O)OC)C1)[C@@H]32`, with > 4 mM (inactive); and `Nc1nc(SCc2ccc3c(c2)OCO3)n[nH]1`, with > 4 mM (inactive).
Turning to `OCC1Cc2ccccc2N1` (stereo not given), the Kd is > 4 mM (inactive).
Then `O=C(Nc1cccnc1)c1c(F)cccc1F`, with > 4 mM (inactive).
Turning to `NC(=O)CSc1nc2ccccc2[nH]1`, the Kd was > 4 mM (inactive).
For `O=C1CCc2ccccc2CN1` the value was > 4 mM (inactive); for `COC(=O)C[C@@H]1C2(C)C(=O)[C@@H](CC3C2CC[C@]2(C)C3CC(=O)O[C@H]2c2ccoc2)[C@H](OC(C)=O)C1(C)C` (stereo not given in full), > 4 mM (inactive); for `CC(=O)Nn1c(=O)[nH]c2ccccc2c1=O`, > 4 mM (inactive).
Then `COc1cc(CNC(=O)CCCC/C=C/C(C)C)ccc1O`, with > 4 mM (inactive); and `C[C@@H]1CC[C@@]23CCC4(C)[C@@](C=CC5[C@@]6(C)CCC(=O)C(C)(C)C6CC[C@]54C)(OC2=O)C3[C@H]1C` (stereo not given in full), with > 4 mM (inactive).
For `O=c1[nH]cnc2nc[nH]c12` the value was > 4 mM (inactive); for `NCc1ccc2c(c1)OCCO2`, > 4 mM (inactive).
Regarding `O=C1CSC(=O)N1CNc1ccccc1`, the Kd was > 4 mM (inactive).
Then `Nc1c(C(=O)O)sc2ncccc12`, with > 4 mM (inactive); and `CC1CCN(C(=O)c2ccc3c(c2)OCCO3)CC1`, with > 4 mM (inactive); and `CCN(CC)S(=O)(=O)c1ccc(F)cc1`, with > 4 mM (inactive).
Then `CCNC(=O)CC1Nc2ccccc2NC1=O` (stereo not given), with > 4 mM (inactive).
For `CCn1cnc2sc(C(=O)O)c(C)c2c1=O` the value was > 4 mM (inactive); for `COc1cc2c3cc1Oc1cc(ccc1O)C[C@@H]1c4c(cc(OC)c(O)c4Oc4ccc(cc4)C[C@@H]3N(C)CC2)CC[N+]1(C)C`, > 4 mM (inactive).
As to `O=C(c1cccs1)N1CCCc2ccccc21`, the Kd is > 4 mM (inactive).
For `C[C@H]1OC(O[C@H]2[C@@H](O)CC(O[C@H]3[C@@H](O)C[C@H](O[C@H]4CC[C@]5(C)C6CC[C@]7(C)[C@@H](C8=CC(=O)OC8)[C@@H](O)C[C@]7(O)[C@@H]6CC[C@@H]5C4)O[C@@H]3C)O[C@@H]2C)C[C@H](O)C1O` (stereo not given in full) the value was > 4 mM (inactive).
Then `c1ccc(-c2noc(-c3ccco3)n2)nc1`, with > 4 mM (inactive); and `CCOc1nc(C)ccc1-c1noc(-c2ccco2)n1`, with > 4 mM (inactive).
Take `O=C(O)C1Cc2c([nH]c3ccccc23)CN1` (stereo not given): the Kd is > 4 mM (inactive).
Consider `Nc1ccc2c(c1)CCC2=O`, for which the Kd is > 4 mM (inactive).
For `S=C=NCc1ccccc1` the value was > 4 mM (inactive).
As for `Nc1cc(C(F)(F)F)ccc1N1CCOCC1`, the Kd is > 4 mM (inactive).
For `C[C@@H]1OC(O[C@H]2[C@H](OC(=O)[C@]34CCC(C)(C)CC3C3=CCC5[C@@]6(C)CC[C@H](OC7O[C@@H](C)[C@H](O[C@@H]8OC[C@@H](O)[C@H](O)[C@H]8O)[C@@H](O)[C@H]7O)C(C)(C)C6CC[C@@]5(C)[C@]3(C)CC4O)OC[C@H](O)[C@H]2O)[C@H](O)[C@H](O)[C@H]1O[C@@H]1O[C@H](CO)[C@@H](O)[C@H](O)[C@H]1O` (stereo not given in full) the value was > 4 mM (inactive).
Then `COC(=O)CCC(C)[C@H]1CCC2C3C(C[C@H](O)[C@@]21C)[C@@]1(C)CC[C@@H](O)C[C@H]1C[C@H]3O` (stereo not given in full), with > 4 mM (inactive); and `CC1(NC(=O)NCc2ccccc2)CCS(=O)(=O)C1` (stereo not given), with > 4 mM (inactive); and `COC(=O)[C@]1(C)CCC[C@]2(C)c3ccc(C(C)C)cc3C(=O)CC12` (stereo not given in full), with > 4 mM (inactive).
As to `NC(=O)Cc1nc(-c2ccc(F)cc2)cs1`, the Kd is > 4 mM (inactive).
Then `COC(=O)c1ccccc1NC(=O)c1cc[n+]([O-])cc1`, with > 4 mM (inactive); and `CN1CCN(C(=O)c2ccco2)CC1`, with > 4 mM (inactive); and `NC(=O)C1CCN(C(=O)c2ccccc2)CC1`, with > 4 mM (inactive).
Then `Cc1cc(NC(=O)Cc2c(F)cccc2Cl)no1`, with > 4 mM (inactive); and `O=C1CC(=O)N(c2ccccc2F)C(=S)N1`, with > 4 mM (inactive).
`CC(=O)Nc1nc2c(s1)C(=O)NCCC2`: the Kd is > 4 mM (inactive).
Then `Cn1cccc1C=C1C(=O)NC(=S)NC1=O`, with > 4 mM (inactive).
Consider `CN(C)N1C(=O)c2ccccc2C1=O`, for which the Kd is > 4 mM (inactive).
Then `CSc1ncnc2nc[nH]c12`, with > 4 mM (inactive); and `CC(=O)Nc1sccc1C(=O)NC(N)=O`, with > 4 mM (inactive); and `CC(=O)NCC1(c2ccccc2)CCOCC1`, with > 4 mM (inactive).
`O=C(O)c1ccc2nsnc2c1`: the Kd is > 4 mM (inactive).
For `CC(=O)CC(=O)N1C(O)CC[N+]1(C)C` (stereo not given) the value was > 4 mM (inactive); for `Nc1ccc2c(c1)N1CCN=C1S2`, > 4 mM (inactive); for `CSc1nsc(SCc2cnc(C)nc2N)n1`, > 4 mM (inactive).
Then `Cc1ccccc1NC(=O)CC1NCCNC1=O` (stereo not given), with > 4 mM (inactive).
Then `Cc1ccc(OCC(=O)n2cnnc2N)c(C)c1`, with > 4 mM (inactive).
With `O=C1CCC(C(=O)NCc2ccc(Cl)cc2)N1` (stereo not given), the Kd was > 4 mM (inactive).
For `c1ccc2c(c1)nnn2C1CCNCC1` the value was > 4 mM (inactive).
Consider `O=C1COc2cc(O)ccc21`, for which the Kd was > 4 mM (inactive).
`C[C@H](CCC(=O)O)[C@H]1CCC2C3C(CC[C@@]21C)[C@@]1(C)CC[C@@H](O)C[C@H]1C[C@H]3O` (stereo not given in full): the Kd was > 4 mM (inactive).
For `NCc1csc(-c2cccs2)n1` the value was > 4 mM (inactive); for `Cc1nn(C)c(Cl)c1S(=O)(=O)N1CCOCC1`, > 4 mM (inactive).

Values taken from PubChem BioAssay AID1648 (Sanford-Burnham Center for Chemical Genomics, 2009).
